This is an account of results in patent publication US9073940B2, “Tricyclic pyrazol amine derivatives” (MERCK SERONO SA, priority 2009, dated 2015).

Structures are written as SMILES.

The first assay has as its system 4 PI3K isoforms (Human recombinant GST-PI3K). The assay can be described thus: PI3K scintillation proximity assay, best IC50 obtained with the four isoforms (alpha, beta, delta, gamma). Format: biochemical. The settings on record: best IC50 obtained with the four isoforms of PI3K; read-out: Best potency measured on the 4 PI3K isoforms.
As for `O=C(c1nn(-c2ccc(CN3CCOCC3)cc2)c2c1CS(=O)(=O)c1ncccc1-2)N1CCOCC1` [Example 211], the IC50 is 0.4 µM. Take `COCCOCCN1CCCC(n2nc(C(=O)N3CCOCC3)c3c2-c2ccccc2S(=O)(=O)C3)C1` (centres unmarked) [Example 225, 1-{1-[2-(2-Methoxyethoxy)ethyl]piperidin-3-yl}-3-(morpholin-4-ylcarbonyl)-1,4-dihydrothiochromeno[4,3-c]pyrazole 5,5-dioxide]: the IC50 worked out at 0.635 µM. Turning to `O=C(c1nn(-c2ccc(CN3CCC(F)CC3)nc2)c2c1CS(=O)(=O)c1ccccc1-2)N1CCOCC1` [Example 217, 1-{6-[(4-Fluoropiperidin-1-yl)methyl]pyridin-3-yl}-3-(morpholin-4-ylcarbonyl)-1,4-dihydrothiochromeno[4,3-c]pyrazole 5,5-dioxide], the IC50 is 1.2 µM. The same measure, in the same setting: the value for `O=C(c1nn(-c2cccnc2)c2c1CS(=O)(=O)c1ccccc1-2)N1CCOCC1` [Example 88, 3-(Morpholin-4-ylcarbonyl)-1-pyridin-3-yl-1,4-dihydrothiochromeno[4,3-c]pyrazole 5,5-dioxide] was 1.13 µM.

For `COCCCN1CCCC(n2nc(C(=O)N3CCOCC3)c3c2-c2ccccc2S(=O)(=O)C3)CC1` (centres unmarked) [Example 258, 1-[1-(3-Methoxypropyl)azepan-4-yl]-3-(morpholin-4-ylcarbonyl)-1,4-dihydrothiochromeno[4,3-c]pyrazole 5,5-dioxide], the IC50 came out at 0.438 µM. As for `O=C(c1nn(-c2cccc(CN3CCCCC3)c2)c2c1CS(=O)(=O)c1ccccc1-2)N1CCOCC1` [Example 178, 3-(Morpholin-4-ylcarbonyl)-1-[3-(piperidin-1-ylmethyl)phenyl]-1,4-dihydrothiochromeno[4,3-c]pyrazole 5,5-dioxide], the IC50 turned out to be 0.394 µM. Same read-out and setting: in the case of `O=C(c1nn(-c2ccccc2)c2c1CS(=O)(=O)c1ccc([N+](=O)[O-])cc1-2)N1CCOCC1` [Example 36, 3-(morpholin-4-ylcarbonyl)-8-nitro-1-phenyl-1,4-dihydrothiochromeno[4,3-c]pyrazole 5,5-dioxide] it was 1.83 µM. For the compound `Cc1noc(C)c1-c1cccc(-n2nc(C(=O)N3CCOCC3)c3c2-c2ccccc2S(=O)(=O)C3)c1` [Example 184, 1-[3-(3,5-Dimethylisoxazol-4-yl)phenyl]-3-(morpholin-4-ylcarbonyl)-1,4-dihydrothiochromeno[4,3-c]pyrazole 5,5-dioxide], the IC50 came to 0.3 µM. As to `O=C(CCN1CCC[C@H](n2nc(C(=O)N3CCOCC3)c3c2-c2ccccc2S(=O)(=O)C3)C1)N1CC(F)(F)C1` (stereo in doubt) [Example 429, 1-{1-[3-(3,3-difluoroazetidin-1-yl)-3-oxopropyl]piperidin-3-yl}-3-(morpholin-4-ylcarbonyl)-1,4-dihydrothiochromeno[4,3-c]pyrazole 5,5-dioxide], the IC50 worked out at 0.039 µM. For `O=C(c1nn(C2CCN(CC3CCOC3)C2)c2c1CS(=O)(=O)c1c(F)cccc1-2)N1CCOCC1` (centres unmarked) [Example 304, 6-Fluoro-3-(morpholin-4-ylcarbonyl)-1-[1-(tetrahydrofuran-3-ylmethyl)pyrrolidin-3-yl]-1,4-dihydrothiochromeno[4,3-c]pyrazole 5,5-dioxide], the IC50 came out at 0.057 µM.

Regarding `COCC(=O)N1CCC[C@H](n2nc(C(=O)N3CCOCC3)c3c2-c2ccccc2S(=O)(=O)C3)C1` (stereo in doubt) [Example 447, 1-[1-(methoxyacetyl)piperidin-3-yl]-3-(morpholin-4-ylcarbonyl)-1,4-dihydrothiochromeno[4,3-c]pyrazole 5,5-dioxide], the IC50 stood at 0.261 µM. In the case of `CC(C)(C)OC(=O)N1CCCC(n2nc(C(=O)N3CCOCC3)c3c2-c2ccccc2S(=O)(=O)C3)CC1` (centres unmarked) [Example 257], the IC50 is 0.824 µM.

Turning to `O=C(c1nn([C@H]2CCCN(CCN3CCCCC3)C2)c2c1CS(=O)(=O)c1ccccc1-2)N1CCOCC1` (stereo in doubt) [Example 465, 3-(morpholin-4-ylcarbonyl)-1-[1-(2-piperidin-1-ylethyl)piperidin-3-yl]-1,4-dihydrothiochromeno[4,3-c]pyrazole 5,5-dioxide], the IC50 turned out to be 0.015 µM. Still for that read-out and setting: in the case of `CN1CCCC(Cn2nc(C(=O)N3CCOCC3)c3c2-c2ccccc2S(=O)(=O)C3)C1` (centres unmarked) [Example 70, 1-[(1-Methylpiperidin-3-yl)methyl]-3-(morpholin-4-ylcarbonyl)-1,4-dihydrothiochromeno[4,3-c]pyrazole 5,5-dioxide] it was 6.05 µM.

Take `O=C(c1nn(-c2ccc(N3CCOCC3)cc2)c2c1CS(=O)(=O)c1ccccc1-2)N1CCOCC1` [Example 155, 3-(Morpholin-4-ylcarbonyl)-1-(4-morpholin-4-ylphenyl)-1,4-dihydrothiochromeno[4,3-c]pyrazole 5,5-dioxide]: the IC50 amounted to 3.94 µM. Regarding `O=C(c1nn(-c2ccccc2)c2c1CS(=O)(=O)c1cc(Br)ccc1-2)N1CCOCC1` [Example 122], the IC50 was 0.904 µM. As for `COCCNc1ccc2c(c1)-c1c(c(C(=O)N3CCOCC3)nn1-c1ccccc1)CS2(=O)=O` [Example 156, N-(2-Methoxyethyl)-3-(morpholin-4-ylcarbonyl)-1-phenyl-1,4-dihydrothiochromeno[4,3-c]pyrazol-8-amine 5,5-dioxide], the IC50 was determined as 0.902 µM. Consider `CN1CCCC1CCn1nc(C(=O)N2CCOCC2)c2c1-c1ccccc1S(=O)(=O)C2` (centres unmarked) [Example 71, 1-[2-(1-Methylpyrrolidin-2-yl)ethyl]-3-(morpholin-4-ylcarbonyl)-1,4-dihydrothiochromeno[4,3-c]pyrazole 5,5-dioxide], for which the IC50 was determined as 1.23 µM. As to `O=C(c1nn(Cc2cc(Cl)cs2)c2c1CS(=O)(=O)c1ccccc1-2)N1CCOCC1` [Example 240, 1-[(4-Chloro-2-thienyl)methyl]-3-(morpholin-4-ylcarbonyl)-1,4-dihydrothiochromeno[4,3-c]pyrazole 5,5-dioxide], the IC50 is 0.624 µM. For the compound `O=C(c1cccc(-n2nc(C(=O)N3CCOCC3)c3c2-c2ccccc2S(=O)(=O)C3)c1)N1CCCC(CO)C1` (centres unmarked) [Example 145, (1-{3-[3-(Morpholin-4-ylcarbonyl)-5,5-dioxidothiochromeno[4,3-c]pyrazol-1 (4H)-yl]benzoyl}piperidin-3-yl)methanol], the IC50 came out at 0.502 µM.

For `O=C(c1nn(-c2ccccc2Cl)c2c1CS(=O)(=O)c1ccccc1-2)N1CCOCC1` [Example 22, 1-(2-chlorophenyl)-3-(morpholin-4-ylcarbonyl)-1,4-dihydrothiochromeno[4,3-c]pyrazole 5,5-dioxide], the IC50 was found to be 4.02 µM.

As to `O=C(c1nn(-c2cccc(Cn3cccn3)c2)c2c1CS(=O)(=O)c1ccccc1-2)N1CCOCC1` [Example 292, 3-(Morpholin-4-ylcarbonyl)-1-[3-(1H-pyrazol-1-ylmethyl)phenyl]-1,4-dihydrothiochromeno[4,3-c]pyrazole 5,5-dioxide], the IC50 was 0.488 µM. Still for that read-out and setting: the value for `O=C(CC1CCCCC1)N1CCC(n2nc(C(=O)N3CCOCC3)c3c2-c2ccccc2S(=O)(=O)C3)C1` (centres unmarked) [Example 279, 1-[1-(Cyclohexylacetyl)pyrrolidin-3-yl]-3-(morpholin-4-ylcarbonyl)-1,4-dihydrothiochromeno[4,3-c]pyrazole 5,5-dioxide] was 0.711 µM; that for `O=C(c1nn(-c2cccc(N3CCOCC3)c2)c2c1CS(=O)(=O)c1ccccc1-2)N1CCOCC1` [Example 154, 3-(Morpholin-4-ylcarbonyl)-1-(3-morpholin-4-ylphenyl)-1,4-dihydrothiochromeno[4,3-c]pyrazole 5,5-dioxide] was 0.673 µM. On to `COc1cccc(Cn2nc(C(=O)N3CCOCC3)c3c2-c2ccccc2S(=O)(=O)C3)c1` [Example 232, 1-(3-Methoxybenzyl)-3-(morpholin-4-ylcarbonyl)-1,4-dihydrothiochromeno[4,3-c]pyrazole 5,5-dioxide], for which the IC50 was 1.17 µM. Consider `COc1cccc2c1S(=O)(=O)Cc1c(C(=O)N3CCOCC3)nn(C)c1-2` [Example 2, 6-methoxy-1-methyl-3-(morpholin-4-ylcarbonyl)-1,4-dihydrothiochromeno[4,3-c]pyrazole 5,5-dioxide], for which the IC50 worked out at 1.73 µM.

Turning to `O=C(c1nn(-c2ccccc2)c2c1CS(=O)(=O)c1c(-c3ccccc3)cccc1-2)N1CCOCC1` [Example 323], the IC50 amounted to 17.9 µM. Same read-out and setting: the value for `O=C(c1nn(C2CN3CCC2CC3)c2c1CS(=O)(=O)c1ccccc1-2)N1CCOCC1` (centres unmarked) [Example 393] was 10.2 µM. Consider `O=C(c1nn(C2CCN(CCn3ccnc3)C2)c2c1CS(=O)(=O)c1ccccc1-2)N1CCOCC1` (centres unmarked) [Example 288, 1-{1-[2-(1H-Imidazol-1-yl)ethyl]pyrrolidin-3-yl}-3-(morpholin-4-ylcarbonyl)-1,4-dihydrothiochromeno[4,3-c]pyrazole 5,5-dioxide], for which the IC50 was found to be 0.166 µM. The same measure, in the same setting: in the case of `O=C(O)c1nn(-c2ccc(CN3CCOCC3)cc2)c2c1CS(=O)(=O)c1ccccc1-2` [Example 238, 1-[4-(Morpholin-4-ylmethyl)phenyl]-1,4-dihydrothiochromeno[4,3-c]pyrazole-3-carboxylic acid 5,5-dioxide] it was 4.04 µM.

As for `O=C(CC1CCOCC1)N1CCC[C@H](n2nc(C(=O)N3CCOCC3)c3c2-c2ccccc2S(=O)(=O)C3)C1` [Example 398], the IC50 was 0.345 µM. Still for that read-out and setting: in the case of `C[C@@H]1CN(CCN2CCC[C@H](n3nc(C(=O)N4CCOCC4)c4c3-c3ccccc3S(=O)(=O)C4)C2)C[C@H](C)O1` (single isomer, unassigned) [Example 378] it was 0.065 µM.

Still in this assay, the particulars now being: inhibition at 20 μM.
Regarding `CC(C)c1ccccc1-n1nc(C(=O)N2CCOCC2)c2c1-c1ccccc1S(=O)(=O)C2` [Example 312, 1-(2-Isopropylphenyl)-3-(morpholin-4-ylcarbonyl)-1,4-dihydrothiochromeno[4,3-c]pyrazole 5,5-dioxide], the “Best potency measured on the 4 PI3K isoforms, % inh @20 μM” value (“Best potency measured … % inh @20 μM” below) worked out at 47% inh @20 μM. Take `O=C(c1nn(-c2ccccc2)c2c1C[S+]([O-])c1ccccc1-2)N1CCOCC1` (centres unmarked) [Example 330, 3-(Morpholin-4-ylcarbonyl)-1-phenyl-1,4-dihydrothiochromeno[4,3-c]pyrazole 5-oxide]: the “Best potency measured … % inh @20 μM” value was 18% inh @20 μM.

Regarding `CC(C)CC1COCCN1C(=O)c1nn(-c2ccccc2)c2c1CS(=O)(=O)c1ccccc1-2` (centres unmarked) [Example 332], the “Best potency measured … % inh @20 μM” value amounted to 15% inh @20 μM.
